Tests used:
Assay type in all cases: biochemical
Human PKK [1] = biological target: T1, Human PKK (Homo sapiens (Human), UniProt P03952); test: Inhibition of PKK, endpoint assay (human PKK); conditions: substrate H-Pro-Phe-Arg-AMC, 1 h room temperature
Procedure: Subsequently, PPACK II (Calbiochem) was added as a stop solution to achieve a final concentration of 1 μM and fluorescence was measured using an Envision Reader (PerkinElmer) with the wavelength excitation setting of 355 nm and the wavelength emission setting of 460 nm.

Human PKK [2] = biological target: T1, Human PKK; test: Inhibition of PKK (Ki), kinetic assay; conditions: 24° C., IC50 corrected for KM
Procedure: Measurements were performed in a kinetic interval every 2nd minute for 16 min using a Spectramax M5 (Molecular Devices) with the following settings of the wavelength excitation of 350 nm and wavelength emission of 450 nm. The number of the compound corresponds to the number of the Example in the experimental section.
The pIC50 values were then fitted using a four-parametric fitting procedure using GraphPad Prism (version 6; GraphPad Software, Inc.).
(§1) Where the IC50 is in molar and the KM value in mM.

human TK1 = human TK1 (Homo sapiens (Human), UniProt P06870); test: Inhibition of TK1 (Ki); conditions: column head prints IC50, text above the table says Ki values
Sequence of human TK1 (P06870 25-262): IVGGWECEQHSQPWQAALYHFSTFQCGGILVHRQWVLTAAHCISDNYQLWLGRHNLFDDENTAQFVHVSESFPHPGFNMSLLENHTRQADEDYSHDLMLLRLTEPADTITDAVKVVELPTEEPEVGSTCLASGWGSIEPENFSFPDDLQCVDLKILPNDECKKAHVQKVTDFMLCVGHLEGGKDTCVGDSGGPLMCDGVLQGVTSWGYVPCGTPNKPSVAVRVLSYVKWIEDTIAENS
Procedure: The ability of compounds of formula (I) to inhibit plasma kallikrein (PKK), Factor Xlla (FXIIa), Factor Xla (FXIa), Factor Xa (FXa), Factor Ila (alpha-thrombin; FIIa), plasmin, trypsin, tissue kallikrein 1 (TK1), Factor VIIa (FVIIa), or FVIIa complexed with Tissue Factor, phospholipids and CaCl2 (FVIIa/TF/PL/CaCl2) was determined using the following biochemical assays in assay buffer (100 mM Tris, 150 mM NaCL, adjusted to a pH of 7.8 with HCl, and containing 0.1% (w/v) BSA and 0.05% (v/v) Tween20) in the presence of 1% (v/v) DMSO: EVALUATION OF THE INHIBITION OF PKK USING AN ENDPOINT ASSAY Human PKK (0.01 U/mL; Enzyme Research Laboratories) or rat PKK (0.625 nM; produced in-house) was incubated for 1 h at room temperature with 0.10 μM fluorogenic substrate H-Pro-Phe-Arg-AMC (11295 from Bachem) and various concentrations of the test compound in assay buffer. Subsequently, PPACK II (Calbiochem) was added as a stop solution to achieve a final concentration of 1 μM and fluorescence was measured using an Envision Reader (PerkinElmer) with the wavelength excitation setting of 355 nm and the wavelength emission setting of 460 nm.
Prior to the assay, human TK1 (R&D Systems) was activated by incubation with human trypsin (Calbiochem) in a 1:10,000 ratio for 15 min at 37° C. For assaying TK1 inhibitory activity, activated TK1 (31.25 nM or 1 U/mL) was incubated at 24° C. with 0.1 mM fluorogenic substrate H-Pro-Phe-Arg-AMC (11295 from Bachem) and various concentrations of the test compound in assay buffer. Measurements were performed in a kinetic interval every 2nd minute for 16 min using a Spectramax M5 (Molecular Devices) with the following settings of the wavelength excitation of 350 nm and wavelength emission of 450 nm.
The average Vmax values for the time interval from 2 to 12 min after initiation of the assay (expressed as either delta OD/min for assays using a chromogenic substrate or delta RFU/min for assays using a fluorigenic substrate, respectively) were plotted versus the Log of the concentration in molar of the evaluated inhibitor compound. The pIC50 values were then fitted using a four-parametric fitting procedure using GraphPad Prism (version 6; GraphPad Software, Inc.). Respective Ki values were obtained by correction of the IC50 values for the respective KM value of the used substrate (see Table A for the obtained KM values of the used substrates) using the following formula: […]
as §1

T1 sequence (P03952 391-638): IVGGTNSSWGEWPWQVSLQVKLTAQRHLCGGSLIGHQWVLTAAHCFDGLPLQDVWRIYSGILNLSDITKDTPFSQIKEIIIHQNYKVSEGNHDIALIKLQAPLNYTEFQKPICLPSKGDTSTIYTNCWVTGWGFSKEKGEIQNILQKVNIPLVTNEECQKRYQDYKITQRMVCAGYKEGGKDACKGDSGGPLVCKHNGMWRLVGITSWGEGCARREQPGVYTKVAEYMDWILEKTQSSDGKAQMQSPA
T1 sequence (P03952 20-390 partner): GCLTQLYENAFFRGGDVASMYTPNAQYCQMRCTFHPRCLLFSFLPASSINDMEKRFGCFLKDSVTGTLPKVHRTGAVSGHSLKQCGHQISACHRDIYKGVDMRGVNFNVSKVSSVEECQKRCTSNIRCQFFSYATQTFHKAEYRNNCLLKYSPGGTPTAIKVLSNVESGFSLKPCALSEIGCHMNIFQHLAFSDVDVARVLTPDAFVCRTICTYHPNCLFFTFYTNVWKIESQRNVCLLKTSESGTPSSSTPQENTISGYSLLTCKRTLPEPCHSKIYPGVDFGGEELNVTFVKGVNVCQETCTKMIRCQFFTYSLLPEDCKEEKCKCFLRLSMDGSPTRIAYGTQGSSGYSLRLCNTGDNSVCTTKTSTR

SMILES | IC50 (Human PKK [1]) [nM] | Ki (Human PKK [2]) [nM] | IC50 (human TK1) [nM]
Cc1nc(N2CC3(CC3)C2)ncc1Cn1cc(C(=O)N[C@@H]2CCc3c(C)n[nH]c32)c2cncnc21 [Example 33, 7-[(2-{5-Azaspiro[2.3]hexan-5-yl}-4-methyl-pyrimidin-5-yl)methyl]-N-[(6R)-3-methyl-1H,4H,5H,6H-cyclopenta[c]pyrazol-6-yl]-7H-pyrrolo[2,3-d]pyrimidine-5-carboxamide] | 3 | – | > 10000
Cc1nc(N2CC3C(C2)C3(F)F)ccc1Cn1cc(C(=O)N[C@@H]2CCc3c(C)n[nH]c32)c2cncnc21 (stereo partly drawn) [Example 13, 7-[(6-{6,6-Difluoro-3-azabicyclo[3.1.0]hexan-3-yl}-2-methylpyridin-3-yl)methyl]-N-[(6R)-3-methyl-1H,4H,5H,6H-cyclopenta[c]pyrazol-6-yl]-7H-pyrrolo[2,3-d]pyrimidine-5-carboxamide] | 0.5 | 0.1 | > 10000
Cc1nc(N2CC3CC3C2)ncc1Cn1cc(C(=O)N[C@@H]2CCc3c(C)n[nH]c32)c(C)n1 (stereo partly drawn) [Example 25, 1-[(2-{3-Azabicyclo[3.1.0]hexan-3-yl}-4-methyl-pyrimidin-5-yl)methyl]-3-methyl-N-[(6R)-3-methyl-1H,4H,5H,6H-cyclopenta[c]pyrazol-6-yl]-1H-pyrazole-4-carboxamide] | 3 | – | > 10000
Cc1nc(N2CC3CC3C2)ccc1Cc1ccc(C(=O)N[C@@H]2CCc3c(C)n[nH]c32)[nH]1 (stereo partly drawn) [Example 109, 5-[(6-{3-Azabicyclo[3.1.0]hexan-3-yl}-2-methylpyridin-3-yl)methyl]-N-[(6R)-3-methyl-1H,4H,5H,6H-cyclopenta[c]pyrazol-6-yl]-1H-pyrrole-2-carboxamide] | 3 | – | > 10000
Cc1nc(N2C[C@@H]3[C@@H](CO)[C@@H]3C2)ccc1Cn1cc(C(=O)N[C@@H]2CCc3c(C)n[nH]c32)cn1 [Example 94, 1-({6-[(1R,5S,6R)-6-(hydroxymethyl)-3-azabicyclo[3.1.0]hexan-3-yl]-2-methylpyridin-3-yl}methyl)-N-[(6R)-3-methyl-1H,4H,5H,6H-cyclopenta[c]pyrazol-6-yl]-1H-pyrazole-4-carboxamide] | 2 | – | > 10000
Cc1nc(N2CCC3(CC3)C2)ccc1Cn1cc(C(=O)N[C@@H]2CCc3c2n[nH]c3C)cn1 [Example 45, 1-[(6-{5-Azaspiro[2.4]heptan-5-yl]-2-methylpyridin-3-yl)methyl]-N-[(6R)-3-methyl-2H,4H,5H,6H-cyclopenta[c]pyrazol-6-yl]-1H-pyrazole-4-carboxamide] | 4 | – | > 10000
Cc1nc(N2CCC3CC3C2)ccc1Cn1cc(C(=O)N[C@@H]2CCc3c2n[nH]c3C)cn1 (stereo partly drawn) [Example 48, 1-[(6-{3-Azabicyclo[4.1.0]heptan-3-yl}-2-methylpyridin-3-yl)methyl]-N-[(6R)-3-methyl-2H,4H,5H,6H-cyclopenta[c]pyrazol-6-yl]-1H-pyrazole-4-carboxamide] | 5 | – | > 10000
Cc1nc(N2CC3(CC3)C2)ncc1Cn1cnc(C(=O)N[C@@H]2CCc3c(C)n[nH]c32)c1 [Example 93, 1-[(2-{5-Azaspiro[2.3]hexan-5-yl}-4-methyl-pyrimidin-5-yl)methyl]-N-[(6R)-3-methyl-2H,4H,5H,6H-cyclopenta[c]pyrazol-6-yl]-1H-imidazole-4-carboxamide] | 4 | – | > 10000
Cc1nc(N2C[C@@H]3[C@@H](C)[C@@H]3C2)ccc1Cn1cc(C(=O)N[C@@H]2CCc3c2n[nH]c3C)cn1 [Example 79, N-[(6R)-3-Methyl-2H,4H,5H,6H-cyclopenta[c]pyrazol-6-yl]-1-({2-methyl-6-[(1R,5S,6R)-6-methyl-3-azabicyclo[3.1.0]hexan-3-yl]pyridin-3-yl}methyl)-1H-pyrazole-4-carboxamide] | 4 | – | > 10000
Cc1nc(N2CC3CC3C2C)ccc1Cn1cc(C(=O)N[C@@H]2CCc3c2n[nH]c3C)cn1 (stereo partly drawn) [Example 82, N-[(6R)-3-Methyl-2H,4H,5H,6H-cyclopenta[c]pyrazol-6-yl]-1-[(2-methyl-6-{2-methyl-3-azabicyclo[3.1.0]hexan-3-yl}pyridin-3-yl)methyl]-1H-pyrazole-4-carboxamide] | 2 | – | > 10000
Cc1nc(N2CC3CCCC3C2)ccc1Cn1cc(C(=O)N[C@@H]2CCc3c2n[nH]c3C)cn1 (stereo partly drawn) [Example 62, N-[(6R)-3-Methyl-2H,4H,5H,6H-cyclopenta[c]pyrazol-6-yl]-1-[(2-methyl-6-{octahydrocyclopenta[c]pyrrol-2-yl}pyridin-3-yl)methyl]-1H-pyrazole-4-carboxamide] | 7 | – | –

The remaining molecules from weak to strong by IC50 (Human PKK [1]), led by results:

IC50 (Human PKK [1]) [nM] | Ki (Human PKK [2]) [nM] | IC50 (human TK1) [nM] | SMILES
1 | – | > 10000 | Cc1nc(N2CC3(CC3)C2)ccc1Cn1cnc(C(=O)N[C@@H]2CCc3c(C)n[nH]c32)c1 [Example 88, 1-[(6-{5-Azaspiro[2.3]hexan-5-yl}-2-methylpyridin-3-yl)methyl]-N-[(6R)-3-methyl-2H,4H,5H,6H-cyclo-penta[c]pyrazol-6-yl]-1H-imidazole-4-carboxamide]
1 | – | > 10000 | Cc1nc(N2CC3C(C2)C3(F)F)ncc1Cn1cnc(C(=O)N[C@@H]2CCc3c2n[nH]c3C)c1 (stereo partly drawn) [Example 92, 1-[(2-{6,6-Difluoro-3-azabicyclo[3.1.0]hexan-3-yl}-4-methylpyrimidin-5-yl)methyl]-N-[(6R)-3-methyl-2H,4H,5H,6H-cyclopenta[c]pyrazol-6-yl]-1H-imidazole-4-carboxamide]
0.8 | 0.1 | > 10000 | COCc1nn(Cc2ccc(N3CC4C(C3)C4(F)F)nc2C)cc1C(=O)N[C@@H]1CCc2c(C)n[nH]c21 (stereo partly drawn) [Example 15, 1-[(6-{6,6-Difluoro-3-azabicyclo[3.1.0]hexan-3-yl}-2-methylpyridin-3-yl)methyl]-3-(methoxymethyl)-N-[(6R)-3-methyl-1H,4H,5H,6H-cyclopenta[c]-pyrazol-6-yl]-1H-pyrazole-4-carboxamide]
0.8 | – | > 10000 | Cc1nc(N2CC3CC3C2)ccc1Cn1cnc(C(=O)N[C@@H]2CCc3c2n[nH]c3C)c1 (stereo partly drawn) [Example 90, 1-[(6-{3-Azabicyclo[3.1.0]hexan-3-yl}-2-methyl-pyridin-3-yl)methyl]-N-[(6R)-3-methyl-2H,4H,5H,6H-cyclopenta[c]pyrazol-6-yl]-1H-imidazole-4-carboxamide]
0.6 | – | > 10000 | Cc1nc(N2CC3C(C2)C3(F)F)ccc1Cn1cnc(C(=O)N[C@@H]2CCc3c2n[nH]c3C)c1 (stereo partly drawn) [Example 89, 1-[(6-{6,6-Difluoro-3-azabicyclo[3.1.0]hexan-3-yl}-2-methylpyridin-3-yl)methyl]-N-[(6R)-3-methyl-2H,4H,5H,6H-cyclopenta[c]pyrazol-6-yl]-1H-imidazole-4-carboxamide]
0.5 | 0.1 | > 10000 | Cc1nc(N2CC3CC3C2)ccc1Cn1cc(C(=O)N[C@@H]2CCc3c(C)n[nH]c32)c(C(F)F)n1 (stereo partly drawn) [Example 14, 1-[(6-{3-Azabicyclo[3.1.0]hexan-3-yl}-2-methyl-pyridin-3-y)methyl]-3-(difluoromethyl)-N-[(6R)-3-methyl-1H,4H,5H,6H-cyclopenta[c]pyrazol-6-yl]-1H-pyrazole-4-carboxamide]
0.4 | – | > 10000 | Cc1nc(N2CC3CC3C2)ccc1Cn1cc(C(=O)N[C@@H]2CCc3c(C)n[nH]c32)nn1 (stereo partly drawn) [Example 86, 1-[(6-{3-Azabicyclo[3.1.0]hexan-3-yl}-2-methylpyridin-3-yl)methyl]-N-[(6R)-3-methyl-1H,4H,5H,6H-cyclopenta[c]pyrazol-6-yl]-1H-1,2,3-triazole-4-carboxamide]
